The target in this experiment is T1, maize (Zea mays) class I EPSPS variant TIPS (T102I, P106S), pMON70462 (Zea mays, UniProt O24566, P106S/T102I).
T1 construct: pMON70462
T1 sequence (O24566 1-444 T102I/P106S): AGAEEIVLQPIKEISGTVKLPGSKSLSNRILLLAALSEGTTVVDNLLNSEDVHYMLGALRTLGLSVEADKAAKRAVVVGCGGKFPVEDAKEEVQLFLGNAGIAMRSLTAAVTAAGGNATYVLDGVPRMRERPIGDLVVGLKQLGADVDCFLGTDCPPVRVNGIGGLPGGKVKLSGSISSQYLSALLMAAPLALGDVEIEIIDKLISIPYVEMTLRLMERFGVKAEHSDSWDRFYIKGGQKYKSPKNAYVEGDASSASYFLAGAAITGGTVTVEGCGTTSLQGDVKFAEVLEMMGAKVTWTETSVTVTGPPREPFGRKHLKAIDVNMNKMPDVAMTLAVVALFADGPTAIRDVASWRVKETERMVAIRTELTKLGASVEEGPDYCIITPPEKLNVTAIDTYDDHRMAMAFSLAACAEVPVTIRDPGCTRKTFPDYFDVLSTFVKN
The experiment is described as follows: EPSPS steady-state kinetics, TIPS variant. It counts as biochemical. As to the method:
The wild type and variant EPSPS coding sequences were cloned into a pET-19b base vector (Novagen, Madison, Wis.). The plant (maize) class I EPSPS variants so created were assigned pMON plasmid numbers (Table 2). The variant EPSPS proteins were purified from the E. coli host using the protocols outlined in the pET system manual, 9th edition (Novagen) or by the following method. A single colony or a few microliters from a glycerol stock was inoculated into 4 mL LB medium containing 0.1 mg/mL carbenicillin antibiotic. The culture was incubated with shaking at 37 C for 4 hours. The cultures were stored at 4° C. overnight. The following morning, 1 mL of the overnight culture was used to inoculate 100 mL of fresh LB medium containing 0.1 mg/mL carbenicillin. The cultures were incubated with shaking at 37 C for 4-5 hours, then the cultures were placed at 4° C. for 5-10 minutes. The cultures were then induced with IPTG (1 mM final concentration) and incubated with shaking at 30 C for 4 hours or 20° C. overnight. The cells were harvested by centrifugation at 7000 rpm for 20 minutes at 4° C. The supernatant was removed and the cells were frozen at −70° C. until further use. The proteins were extracted by resuspending the cell pellet in BugBuster reagent (Novagen) using 5 mL reagent per gram of cells. […]

`O=C(O)CNCP(=O)(O)O` [glyphosate, N-phosphonomethylglycine] had a Ki of 58 ± 14 µM.

Usually Ki stands for the equilibrium dissociation constant of an inhibitor or competing ligand from its target. Read a low Ki as higher affinity.

The values above are taken from patent US8436159B2, “Glyphosate resistant class I 5-endolpyruvylshikimate-3-phosphate synthase (EPSPS)” (Monsanto Technology LLC, priority 2003, dated 2013).
